Test results: publication PMC3742231 (International Journal of Molecular Sciences, 2013)
Read-outs that look alike come from different tables or passages of the source.

How the values were obtained:
CYP2E1 = CYP2E1 (Homo sapiens, UniProt P05181); assay: N-in-one CYP inhibition assay in human liver microsomes; details: read-out: IC50, Chlorzoxazone 6-hydroxylation; human liver microsomes, probe 6 μM
Procedure: (§1) Human liver microsomes were prepared and pooled from ten human livers (HL20–24,28–32) as previously described. Human liver samples were obtained from the University Hospital of Oulu as surplus tissue from cadaver kidney transplant donors. The collection of surplus tissue was approved by the Ethics Committee of the Medical Faculty of the University of Oulu, Finland. All donors were Caucasians ranging in age from 21 to 62 years; four were female and six were male. Detailed information on each donor has been published previously. Protein concentrations were measured using the Bradford method.
(§2) In vitro inhibition of CYP isoforms was first assessed using the N-in-one approach (also called the cocktail approach). CYP-selective substrates and reactions are listed in Table 1; concentrations were roughly at or below the respective Michaelis-Menten coefficients. […] A Micromass LCT time-of-flight high-resolution mass spectrometer (Micromass Ltd., Manchester, UK) equipped with a Z-spray electrospray ionization source was used for the monitoring of CYP-selective reactions. Integrated mass chromatogram peak areas were normalized versus internal standards before comparing metabolites in different preparations. More details of the assay are available in previous publications.

CYP2A6 = target: T1, CYP2A6 (Homo sapiens, UniProt P11509); assay: as above; details: read-out: IC50, Coumarin 7-hydroxylation; human liver microsomes, probe 2 μM
T1 sequence (P11509 1-494): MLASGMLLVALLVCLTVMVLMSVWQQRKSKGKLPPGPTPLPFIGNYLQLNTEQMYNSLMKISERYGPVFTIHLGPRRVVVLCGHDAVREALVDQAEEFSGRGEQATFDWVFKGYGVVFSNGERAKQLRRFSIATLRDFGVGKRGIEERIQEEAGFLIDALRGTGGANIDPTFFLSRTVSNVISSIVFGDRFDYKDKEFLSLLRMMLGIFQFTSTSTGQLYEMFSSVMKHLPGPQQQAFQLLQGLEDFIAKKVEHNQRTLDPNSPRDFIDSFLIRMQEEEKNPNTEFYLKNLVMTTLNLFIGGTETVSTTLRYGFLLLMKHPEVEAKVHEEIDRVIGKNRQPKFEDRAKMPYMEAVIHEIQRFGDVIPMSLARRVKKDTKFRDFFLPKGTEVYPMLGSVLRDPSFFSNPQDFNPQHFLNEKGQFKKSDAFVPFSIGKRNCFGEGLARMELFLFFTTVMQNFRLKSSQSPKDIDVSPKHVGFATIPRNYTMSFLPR
Procedure: as §1, §2

CYP2C19 = CYP2C19 (Homo sapiens, UniProt P33261); assay: biochemical; details: human liver microsomes, probe 2 μM
Procedure: as §1, §2
(§3) Dixon, Lineweaver-Burk, Hanes, and Hofstee plots were used for the analysis of the type of inhibition.

CYP2B6 = target: T2, CYP2B6 (Homo sapiens, UniProt P20813); assay: biochemical; details: read-out: IC50, Bupropion hydroxylation; human liver microsomes, probe 1 μM
T2 sequence (P20813 1-491): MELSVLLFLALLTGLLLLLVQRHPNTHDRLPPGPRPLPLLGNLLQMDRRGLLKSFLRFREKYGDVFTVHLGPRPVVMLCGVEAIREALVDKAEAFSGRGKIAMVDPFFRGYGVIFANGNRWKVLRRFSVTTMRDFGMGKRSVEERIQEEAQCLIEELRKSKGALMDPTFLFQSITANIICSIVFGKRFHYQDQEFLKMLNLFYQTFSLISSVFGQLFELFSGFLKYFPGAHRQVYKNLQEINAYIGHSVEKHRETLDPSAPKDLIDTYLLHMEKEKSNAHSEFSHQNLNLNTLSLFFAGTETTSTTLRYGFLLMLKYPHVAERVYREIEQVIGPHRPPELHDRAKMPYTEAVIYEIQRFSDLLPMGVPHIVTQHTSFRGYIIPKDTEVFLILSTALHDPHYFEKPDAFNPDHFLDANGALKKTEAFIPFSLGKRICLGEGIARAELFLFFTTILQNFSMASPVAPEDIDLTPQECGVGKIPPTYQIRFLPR
Procedure: as §1, §2, §3

CYP3A4 = CYP3A4 (Homo sapiens, UniProt P08684); assay: biochemical; details: human liver microsomes
Procedure: as §1, §2

CYP1A2 = target: T3, CYP1A2 (Homo sapiens, UniProt P05177); assay: biochemical; details: read-out: IC50, Melatonin 6-hydroxylation; human liver microsomes, probe 4 μM
T3 sequence (P05177 1-516): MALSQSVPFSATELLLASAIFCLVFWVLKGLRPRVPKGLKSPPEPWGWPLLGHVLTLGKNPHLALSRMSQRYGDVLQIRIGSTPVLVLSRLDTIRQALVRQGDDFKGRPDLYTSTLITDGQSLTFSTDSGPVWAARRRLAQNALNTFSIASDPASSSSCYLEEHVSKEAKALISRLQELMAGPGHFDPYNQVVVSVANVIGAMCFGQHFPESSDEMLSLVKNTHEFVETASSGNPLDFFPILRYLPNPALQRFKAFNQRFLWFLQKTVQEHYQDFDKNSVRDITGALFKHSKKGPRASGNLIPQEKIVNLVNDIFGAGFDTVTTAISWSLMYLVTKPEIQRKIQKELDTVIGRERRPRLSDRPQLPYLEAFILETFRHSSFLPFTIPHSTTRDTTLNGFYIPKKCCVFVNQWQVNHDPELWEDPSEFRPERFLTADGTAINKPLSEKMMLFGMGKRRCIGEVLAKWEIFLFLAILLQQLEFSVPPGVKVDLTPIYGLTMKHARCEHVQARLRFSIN
Procedure: as §1, §2

CYP2C8 = target: T4, CYP2C8 (Homo sapiens, UniProt P10632); assay: N-in-one CYP inhibition assay in human liver microsomes; type of inhibition; details: read-out: IC50, Amodiaquine desethylation; human liver microsomes, probe 2 μM
T4 sequence (P10632 1-490): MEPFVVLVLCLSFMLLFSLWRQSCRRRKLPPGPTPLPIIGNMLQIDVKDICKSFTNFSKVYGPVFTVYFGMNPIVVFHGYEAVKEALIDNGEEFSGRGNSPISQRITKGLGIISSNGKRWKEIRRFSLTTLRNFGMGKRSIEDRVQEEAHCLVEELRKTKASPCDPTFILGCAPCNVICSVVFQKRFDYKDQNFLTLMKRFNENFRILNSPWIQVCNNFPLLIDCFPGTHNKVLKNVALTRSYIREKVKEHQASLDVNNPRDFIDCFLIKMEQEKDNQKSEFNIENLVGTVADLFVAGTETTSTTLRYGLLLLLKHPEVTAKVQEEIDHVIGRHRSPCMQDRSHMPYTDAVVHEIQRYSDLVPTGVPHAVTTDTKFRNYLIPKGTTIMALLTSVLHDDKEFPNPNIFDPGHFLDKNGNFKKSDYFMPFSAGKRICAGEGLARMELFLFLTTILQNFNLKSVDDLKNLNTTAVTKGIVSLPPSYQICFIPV
Procedure: as §1, §2, §3

CYP2D6 = CYP2D6 (Homo sapiens, UniProt P10635); assay: as above; details: read-out: IC50, Dextromethorphan O-demethylation; human liver microsomes, probe 0.2 μM
Procedure: as §1, §2, §3

[1] = test system: CYP-mediated enzyme activities; assay: N-in-one CYP inhibition assay, summary for all other CYP-mediated activities; type: in vitro ADME; details: human liver microsomes; CYPs other than those named in the paragraph
[2] = metabolites of ospemifene; cited from earlier work
[3] = repeated oral 60-mg dosing of ospemifene, no reference given; read-out: clinical Cmax; cited from earlier work
CYP2C9 = CYP2C9 (Homo sapiens, UniProt P11712); details: read-out: IC50, Tolbutamide methylhydroxylation; human liver microsomes, probe 4 μM
Procedure: as §1, §2, §3

[4] = Overall safety in the three clinical studies; type: in vivo, human; details: healthy postmenopausal women, with and without ospemifene
Text: All experiments with human subjects were based on voluntary informed consent and the clinical study protocols had appropriate ethical and regulatory approval. Subjects were asked to immediately report any significant adverse events (AEs) that occurred during the study; minor AEs were reported at clinic visits. AEs were coded and classified according to the Medical Dictionary for Regulatory Activities.

[5] = female, human, in vivo, 150 mg
Text: (§4) Studies 1 and 2 were open-label, two-period, single-center, Phase 1, balanced, crossover studies in healthy postmenopausal women. […] Study 3 was a Phase 1, open-label, single-center, balanced, two-period, crossover study in healthy postmenopausal women who were not homozygous for the CYP2C19*2 genotype (CYP2C19*2 indicates the CYP2C19 variant that is associated with reduced activity). In each study, equal numbers of subjects were assigned to the two different treatment sequences.
(§5) The study periods were separated by ≥14 days.
(§6) With the exception of tmax, which was analyzed using the nonparametric Wilcoxon’s test, pharmacokinetic parameters were analyzed after log-transformation using analysis of variance (ANOVA), with sequence, period, and treatment as fixed effects.

[6] = Study 2: effect of ospemifene on bupropion pharmacokinetics; details: for CL/F, mean (CV%) / t1/2, mean (CV%) / AUCt, mean (CV%) / Cmax, mean (CV%) / tmax, median (range) / AUC∞, mean (CV%): 150 mg bupropion; for AUCt, mean (CV%): 0-96 h; for AUC∞, mean (CV%): N = 16
Text: as §4, §5, §6

clinical = details: female, human, in vivo
Text: as §4, §5, §6

[7] = Study 3: effect of ospemifene on omeprazole pharmacokinetics (metabolic ratios)
Text: as §4
The study periods were separated by ≥14 days. In both study periods, blood samples for determination of plasma omeprazole, 5-hydroxyomeprazole, and omeprazole sulfone concentrations were collected before and at 1, 2, 3, 4, 6, and 8 h after omeprazole administration.
In Study 3, concentrations of omeprazole, 5-hydroxyomeprazole, and omeprazole sulfone were determined using a validated LC-MS/MS method. Pharmacokinetic parameters were analyzed after log-transformation using ANOVA, with sequence, period, and treatment as fixed effects. Primary pharmacokinetic parameters included the metabolic ratios of omeprazole/5-hydroxyomeprazole and omeprazole/omeprazole sulfone, based on plasma concentrations at 3 h, which reflected CYP2C19 and CYP3A4 activities, respectively.

[8] = 10 mg racemic warfarin; for AUC∞, mean (CV%): N = 16
Text: as §4
The study periods were separated by ≥3 weeks.
as §6

[9] = cited from earlier work

Chain of CYP3A4 (P08684 whole entry): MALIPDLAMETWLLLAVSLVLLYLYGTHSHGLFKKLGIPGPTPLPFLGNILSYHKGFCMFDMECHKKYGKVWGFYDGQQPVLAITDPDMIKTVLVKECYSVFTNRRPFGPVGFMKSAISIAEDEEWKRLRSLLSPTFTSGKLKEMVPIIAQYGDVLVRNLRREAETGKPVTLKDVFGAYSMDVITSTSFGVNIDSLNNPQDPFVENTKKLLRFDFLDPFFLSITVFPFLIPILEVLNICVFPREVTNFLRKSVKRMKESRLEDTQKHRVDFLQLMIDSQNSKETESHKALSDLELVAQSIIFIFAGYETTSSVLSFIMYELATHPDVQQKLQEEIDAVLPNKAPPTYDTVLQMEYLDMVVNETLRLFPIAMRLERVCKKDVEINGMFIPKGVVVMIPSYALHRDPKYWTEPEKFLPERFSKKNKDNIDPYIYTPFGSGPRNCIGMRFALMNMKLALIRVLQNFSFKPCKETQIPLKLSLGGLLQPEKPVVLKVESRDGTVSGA
Chain of CYP2C19 (P33261 whole entry): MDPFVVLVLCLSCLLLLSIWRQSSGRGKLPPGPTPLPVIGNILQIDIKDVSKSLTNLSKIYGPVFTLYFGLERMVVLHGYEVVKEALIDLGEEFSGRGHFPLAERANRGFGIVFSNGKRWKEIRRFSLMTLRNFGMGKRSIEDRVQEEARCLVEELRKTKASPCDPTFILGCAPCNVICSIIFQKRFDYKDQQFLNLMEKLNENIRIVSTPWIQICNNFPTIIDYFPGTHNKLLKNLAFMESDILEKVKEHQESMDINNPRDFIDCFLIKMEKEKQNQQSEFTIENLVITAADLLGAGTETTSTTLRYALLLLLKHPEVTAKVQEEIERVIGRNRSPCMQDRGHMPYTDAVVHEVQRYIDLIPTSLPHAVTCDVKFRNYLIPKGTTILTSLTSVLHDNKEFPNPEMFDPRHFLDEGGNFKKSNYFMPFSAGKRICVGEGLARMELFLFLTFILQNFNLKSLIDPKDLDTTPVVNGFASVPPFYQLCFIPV
Chain of CYP2E1 (P05181 whole entry): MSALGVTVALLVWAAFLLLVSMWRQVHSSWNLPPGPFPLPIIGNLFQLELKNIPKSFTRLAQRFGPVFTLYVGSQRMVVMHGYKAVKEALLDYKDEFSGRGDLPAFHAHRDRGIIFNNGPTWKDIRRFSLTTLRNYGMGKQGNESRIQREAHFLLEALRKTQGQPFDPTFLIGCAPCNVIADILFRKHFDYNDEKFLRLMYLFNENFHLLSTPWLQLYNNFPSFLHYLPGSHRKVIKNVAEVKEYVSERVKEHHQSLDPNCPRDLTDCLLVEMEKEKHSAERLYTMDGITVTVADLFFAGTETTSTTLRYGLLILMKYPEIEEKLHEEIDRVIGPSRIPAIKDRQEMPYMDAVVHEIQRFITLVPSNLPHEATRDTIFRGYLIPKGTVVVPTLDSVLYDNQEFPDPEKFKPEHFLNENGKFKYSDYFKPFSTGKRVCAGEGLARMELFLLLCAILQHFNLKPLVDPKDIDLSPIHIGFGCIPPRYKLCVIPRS
Chain of CYP2D6 (P10635 whole entry): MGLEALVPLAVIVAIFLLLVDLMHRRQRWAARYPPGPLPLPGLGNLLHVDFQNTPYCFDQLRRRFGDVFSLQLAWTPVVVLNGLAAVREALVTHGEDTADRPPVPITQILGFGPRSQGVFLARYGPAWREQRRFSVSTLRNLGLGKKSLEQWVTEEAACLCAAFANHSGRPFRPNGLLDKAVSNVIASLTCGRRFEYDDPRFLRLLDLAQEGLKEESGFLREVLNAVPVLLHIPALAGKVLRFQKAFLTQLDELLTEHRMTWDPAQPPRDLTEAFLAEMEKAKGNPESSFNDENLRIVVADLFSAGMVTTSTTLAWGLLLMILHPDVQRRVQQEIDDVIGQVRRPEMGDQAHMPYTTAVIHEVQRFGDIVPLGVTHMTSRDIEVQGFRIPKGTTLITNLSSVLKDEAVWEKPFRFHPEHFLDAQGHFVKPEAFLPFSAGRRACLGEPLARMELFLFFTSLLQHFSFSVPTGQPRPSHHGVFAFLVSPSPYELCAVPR
Chain of CYP2C9 (P11712 whole entry): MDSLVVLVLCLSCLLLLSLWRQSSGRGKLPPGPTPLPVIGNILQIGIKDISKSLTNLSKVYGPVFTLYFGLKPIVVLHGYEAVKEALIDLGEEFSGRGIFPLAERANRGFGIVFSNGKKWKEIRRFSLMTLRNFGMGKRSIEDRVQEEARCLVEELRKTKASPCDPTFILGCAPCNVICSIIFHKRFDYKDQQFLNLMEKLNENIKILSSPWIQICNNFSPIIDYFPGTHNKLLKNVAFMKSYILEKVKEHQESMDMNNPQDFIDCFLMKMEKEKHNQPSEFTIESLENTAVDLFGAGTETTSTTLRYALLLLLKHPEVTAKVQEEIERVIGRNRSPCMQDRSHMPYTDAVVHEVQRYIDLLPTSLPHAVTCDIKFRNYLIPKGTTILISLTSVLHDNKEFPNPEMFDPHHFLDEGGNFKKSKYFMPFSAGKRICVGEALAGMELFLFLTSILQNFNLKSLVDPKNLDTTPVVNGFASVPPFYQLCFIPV

## OCCOc1ccc(/C(=C(/CCCl)c2ccccc2)c2ccc(O)cc2)cc1 [4-Hydroxy-ospemifene, 4-hydroxyospemifene]
CYP2E1
  IC50: > 100 µM
CYP2A6
  IC50: > 100 µM
CYP2C19; read-out: IC50, Omeprazole 5-hydroxylation
  IC50: 15.3 µM
CYP2C19; read-out: IC50, Omeprazole demethylation
  IC50: 19.7 µM
CYP2B6
  IC50: 26.5 µM
CYP3A4; read-out: IC50, Midazolam 1′-hydroxylation, probe 0.4 μM
  IC50: > 100 µM
CYP3A4; read-out: IC50, Omeprazole 3-hydroxylation, probe 2 μM
  IC50: 50 µM
CYP3A4; read-out: IC50, Omeprazole sulfoxidation, probe 2 μM
  IC50: 35.9 µM
CYP3A4; read-out: IC50, Testosterone 6β-hydroxylation, probe 1 μM
  IC50: > 100 µM
CYP1A2
  IC50: > 100 µM
CYP2C8
  IC50: 27.7 µM
CYP2D6
  IC50: 25.5 µM
[1]
  IC50: > 25 µM
[2]
  share of the total metabolites: roughly 70%
[3]
  Cmax: ~300 nM
CYP2C9
  IC50: 1100 nM

## CC(NC(C)(C)C)C(=O)c1cccc(Cl)c1 (centres unmarked) [Bupropion, bupropion]
[4]
  Tolerability: well tolerated
[5]
  AUCt, mean (CV%): 0.85 (33.7) μg h/mL
  AUC∞, mean (CV%): 0.90 (32.3) μg h/mL
[6]; OSP (+)
  CL/F, mean (CV%): 230 (38.1) mL/h
  t1/2, mean (CV%): 29.5 (26.7) h
[6]; OSP (−)
  CL/F, mean (CV%): 185 (38.1) mL/h
clinical
  Tmax: 3 h
clinical; 150 mg
  Cmax: 74.9 ng/mL
  Tmax: 3.5 h
  half-life: 1850 min

## C[C@H]1NC(C)(C)CO[C@]1(O)c1cccc(Cl)c1 [Hydroxybupropion, hydroxybupropion]
[6]; OSP (+)
  AUCt, mean (CV%): 14.5 (31.7) μg h/mL
  Cmax, mean (CV%): 462 (29.0) ng/mL
  t1/2, mean (CV%): 21.2 (18.0) h
  tmax, median (range): 6.1 (5–8) h
[6]; OSP (−)
  AUCt, mean (CV%): 14.3 (28.1) μg h/mL
  Cmax, mean (CV%): 398 (30.6) ng/mL
  t1/2, mean (CV%): 26.7 (18.8) h
  tmax, median (range): 6.0 (5–24) h
  AUC∞, mean (CV%): 15.5 (29.4) μg h/mL
[6]; OSP (+) 60 mg once daily
  AUC∞, mean (CV%): 15.2 (32.4) μg h/mL
[6]; with and without ospemifene pretreatment
  Ratio of geometric least square means of AUC∞ (90% CI): 0.977 (0.921–1.036)

## COc1ccc2[nH]c([S+]([O-])Cc3ncc(C)c(OC)c3C)nc2c1 (centres unmarked) [Omeprazole, omeprazole]
[4]
  Tolerability: well tolerated
[7]; 3 h conc.
  Ratio ospemifene (+)/ospemifene (−) of metabolic ratio Omeprazole/5-hydroxyomeprazole (90% CI): 0.97 (0.77–1.22)
  Ratio ospemifene (+)/ospemifene (−) of metabolic ratio Omeprazole/Omeprazole sulfone (90% CI): 0.97 (0.67–1.41)
[7]; AUCt 0 to 8 h
  Ratio ospemifene (+)/ospemifene (−) of metabolic ratio Omeprazole/5-hydroxyomeprazole (90% CI): 0.97 (0.88–1.08)
  Ratio ospemifene (+)/ospemifene (−) of metabolic ratio Omeprazole/Omeprazole sulfone (90% CI): 1.00 (0.88–1.15)

## CC(=O)C[C@H](c1ccccc1)c1c(O)c2ccccc2oc1=O [R-Warfarin]
[8]; OSP (+)
  Cmax, mean (CV%): 538 (15.4) ng/mL
  tmax, median (range): 4 (2–8) h
[8]; OSP (+) 60 mg once daily
  AUC∞, mean (CV%): 32.8 (23.1) μg h/mL
[8]; OSP (−)
  Cmax, mean (CV%): 518 (15.2) ng/mL
  tmax, median (range): 4 (2–6) h
  AUC∞, mean (CV%): 31.3 (21.7) μg h/mL

## O=C(c1ccc(OCCN2CCCCC2)cc1)c1c(-c2ccc(O)cc2)sc2cc(O)ccc12 [Raloxifene]
[9]
  Decrease of the prothrombin time of patients on warfarin: 10%

## CC(=O)C[C@@H](c1ccccc1)c1c(O)c2ccccc2oc1=O [S-Warfarin, S-warfarin]
[8]; OSP (+)
  Cmax, mean (CV%): 513 (13.3) ng/mL
  tmax, median (range): 4 (2–8) h
[8]; OSP (+) 60 mg once daily
  AUC∞, mean (CV%): 19.2 (30.2) μg h/mL
[8]; OSP (−)
  Cmax, mean (CV%): 497 (14.5) ng/mL
  tmax, median (range): 4 (2–6) h
  AUC∞, mean (CV%): 18.5 (29.9) μg h/mL

## CC(=O)CC(c1ccccc1)c1c(O)c2ccccc2oc1=O (centres unmarked) [warfarin]
[4]
  Tolerability: well tolerated
